{
  "source": "paper PMC12591484",
  "about": "(PLOS One, 2025)",
  "key": {"[1]": {"target": "T1, α1A291Cβ3γ2L GABAA receptors (Homo sapiens, UniProt P14867+P18507+P28472, A318C)", "T1 construct": "expressed in transfected cells; host or cells: Xenopus oocytes injected with capped mRNA, 1α:1β:5γ", "T1 sequence (P14867 28-456 A318C)": "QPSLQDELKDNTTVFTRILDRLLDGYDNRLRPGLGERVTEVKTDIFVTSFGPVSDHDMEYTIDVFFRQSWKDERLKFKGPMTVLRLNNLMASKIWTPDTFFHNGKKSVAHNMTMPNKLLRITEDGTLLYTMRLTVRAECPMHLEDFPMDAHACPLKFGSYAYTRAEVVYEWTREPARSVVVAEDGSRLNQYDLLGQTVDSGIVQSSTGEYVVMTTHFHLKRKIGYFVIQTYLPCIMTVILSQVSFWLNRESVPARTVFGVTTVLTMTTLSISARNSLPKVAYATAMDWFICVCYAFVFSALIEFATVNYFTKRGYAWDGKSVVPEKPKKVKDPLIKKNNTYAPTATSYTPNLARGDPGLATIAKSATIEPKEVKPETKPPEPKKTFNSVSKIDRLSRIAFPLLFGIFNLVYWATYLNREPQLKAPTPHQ", "T1 sequence (P28472 26-473)": "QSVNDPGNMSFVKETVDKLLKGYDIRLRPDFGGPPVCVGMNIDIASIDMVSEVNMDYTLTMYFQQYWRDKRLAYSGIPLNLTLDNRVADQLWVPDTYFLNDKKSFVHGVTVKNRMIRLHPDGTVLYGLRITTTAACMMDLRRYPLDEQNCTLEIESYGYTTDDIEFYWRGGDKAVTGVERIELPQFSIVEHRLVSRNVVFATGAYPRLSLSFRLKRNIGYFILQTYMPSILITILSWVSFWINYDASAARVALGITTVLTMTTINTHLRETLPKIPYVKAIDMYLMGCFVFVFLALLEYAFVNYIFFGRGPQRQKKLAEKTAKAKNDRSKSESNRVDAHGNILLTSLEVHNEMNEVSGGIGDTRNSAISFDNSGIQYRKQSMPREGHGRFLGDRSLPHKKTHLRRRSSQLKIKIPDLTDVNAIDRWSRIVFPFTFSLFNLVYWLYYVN", "T1 sequence (P18507 40-475)": "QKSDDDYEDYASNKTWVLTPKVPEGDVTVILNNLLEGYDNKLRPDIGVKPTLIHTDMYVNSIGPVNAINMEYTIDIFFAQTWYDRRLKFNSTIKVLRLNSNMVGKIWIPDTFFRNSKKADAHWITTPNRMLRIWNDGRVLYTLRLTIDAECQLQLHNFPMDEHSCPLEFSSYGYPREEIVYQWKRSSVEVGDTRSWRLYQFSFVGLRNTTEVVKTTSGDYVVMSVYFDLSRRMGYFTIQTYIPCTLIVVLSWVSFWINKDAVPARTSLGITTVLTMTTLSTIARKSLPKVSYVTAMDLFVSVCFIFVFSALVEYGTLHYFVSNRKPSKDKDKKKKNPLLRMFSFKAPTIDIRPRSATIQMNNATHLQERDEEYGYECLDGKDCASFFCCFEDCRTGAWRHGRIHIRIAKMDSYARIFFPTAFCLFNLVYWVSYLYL", "assay": "Drug protection from pCMBS modification (SCAMP)", "assay_type": "cell-based", "conditions": "for modification ratio with anesthetic present, single oocyte example (Fig 2): 3 mM GABA + 10 µM pCMBS for 90 s plus […] etomidate", "description": "(§1) Experiments were performed in ND-96 buffer at room temperature (20–22°C). Oocytes were placed in a low-volume (30µl) flow chamber and impaled with borosilicate microelectrodes filled with 3M KCl (resistance 0.5–3 MΩ) and voltage-clamped at −50 mV (model OC-725C; Warner Instruments, Hamden, CT, USA). Superfusate solutions in ND-96 were delivered at 2 ml/min from glass syringe reservoirs via computer-controlled valves (VC-8; Warner Instruments), a micro-manifold (ALA-VM8; ALA Scientific Instruments, Farmingdale, NY, USA), and PTFE tubing. Currents were digitized at 200 Hz on a computer running ClampEx v8.0 software (Molecular Devices, San Jose, CA, USA). Digitized traces were filtered with a 10-Hz low-pass Bessel function, leak corrected and analyzed for peak amplitude off-line using Clampfit v8 software (Molecular Devices).\n(§2) Drug protection from pCMBS modification was assessed under pCMBS exposure conditions that produced approximately half of the maximal modification ratio for each mutant receptor, and a least a value of 3. This approach balanced the magnitude of functional modification signals (smaller with less pCMBS exposure) against the challenge of using a reversibly bound ligand to competitively block an irreversible covalent cysteine-modifying reaction. […] Each oocyte was used in a single SCAMP experiment. […] Etomidate was used as a positive control for anesthetic protection in α1M236C and β3M286C mutants and as a negative control in α1S270C, α1A291C, β3L231C, γ2S301C, γ2I242C, and γ2L246C mutants. R-mTFD-MPAB was used as a positive control in α1S270C, α1A291C, β3L231C, and γ2LS301C mutants and as a negative control in α1M236C and β3M286C mutants. For each cysteine mutant and protective drug combination, five oocytes were studied.\n(§3) Non-linear least squares fits and statistical analyses were performed in Prism 10.4.0. (GraphPad Software, San Diego, CA, USA). […] Protection (steric inhibition of pCMBS modification) was inferred when anesthetics produced significant reductions in modification ratios relative to control (no anesthetic) values. The statistical significance threshold was p < 0.05."}, "[2]": {"tested_on": "α1β3γ2L GABAA receptors, substituted cysteine at β3M227 (β3– M1)", "parameters": "key: +: SCAMP is Substituted Cysteine Modification and Protection and is positive when adding anesthetic to cysteine modifier significantly reduces persistent post-exposure effects due to covalent modification; -: Negative results are indicated by “–“ symbols", "conditions": "previously reported; cited from earlier work"}, "[3]": {"tested_on": "α1β3γ2L GABAA receptors, bulky mutation at α1L232", "parameters": "key: +: Mutant-function studies are deemed positive when bulky mutations (mostly tryptophans) at the site significantly reduce positive modulation by anesthetics; -: Negative results are indicated by “–“ symbols", "conditions": "cited from earlier work"}, "[4]": {"target": "T2, α1β3L231Cγ2L GABAA receptors (Homo sapiens, UniProt P14867+P18507+P28472, L256C)", "T2 construct": "expressed in transfected cells; host or cells: Xenopus oocytes injected with capped mRNA, 1α:1β:5γ", "T2 sequence (P14867 28-456)": "as the sequence (P14867 28-456 A318C) above, with C291A counted along it", "T2 sequence (P28472 26-473 L256C)": "as the sequence (P28472 26-473) above, with L231C counted along it", "T2 sequence (P18507 40-475)": "as the sequence (P18507 40-475) above", "assay": "Drug protection from pCMBS modification (SCAMP)", "assay_type": "cell-based", "parameters": "key: +: SCAMP is Substituted Cysteine Modification and Protection and is positive when adding anesthetic to cysteine modifier significantly reduces persistent post-exposure effects due to covalent modification; -: Negative results are indicated by “–“ symbols", "conditions": "results of this study (*); some cells also cite [9]", "description": "as §1, §2, §3"}, "[5]": {"tested_on": "α1β3γ2L GABAA receptors, bulky mutation at γ2S301", "parameters": "method as in PMID 30696720; key: +: Mutant-function studies are deemed positive when bulky mutations (mostly tryptophans) at the site significantly reduce positive modulation by anesthetics; -: Negative results are indicated by “–“ symbols", "conditions": "cited from earlier work"}, "[6]": {"target": "T2, α1β3L231Cγ2L GABAA receptors", "assay": "Drug protection from pCMBS modification (SCAMP)", "assay_type": "cell-based", "parameters": "key: +: Mutant-function studies are deemed positive when bulky mutations (mostly tryptophans) at the site significantly reduce positive modulation by anesthetics; -: Negative results are indicated by “–“ symbols", "conditions": "results of this study (*); some cells also cite [9]", "description": "as §1, §2, §3"}, "[7]": {"target": "T3, α1β3γ2L246C GABAA receptors (Homo sapiens, UniProt P14867+P18507+P28472, L285C)", "T3 construct": "expressed in transfected cells; host or cells: Xenopus oocytes injected with capped mRNAs mixed 1α:1β:5γ", "T3 sequence (P14867 28-456, stated change not applied)": "as the sequence (P14867 28-456 A318C) above, with C291A counted along it", "T3 sequence (P28472 26-473)": "as the sequence (P28472 26-473) above", "T3 sequence (P18507 40-475 L285C)": "as the sequence (P18507 40-475) above, with L246C counted along it", "assay": "Drug protection from pCMBS modification (SCAMP)", "assay_type": "cell-based", "parameters": "key: +: Mutant-function studies are deemed positive when bulky mutations (mostly tryptophans) at the site significantly reduce positive modulation by anesthetics; -: Negative results are indicated by “–“ symbols", "conditions": "results of this study (*); etomidate cell also cites [9]", "description": "as §1, §2, §3"}, "[8]": {"tested_on": "α1β3γ2L GABAA receptors, substituted cysteine at β3M227 (β3– M1)", "parameters": "key: +: Mutant-function studies are deemed positive when bulky mutations (mostly tryptophans) at the site significantly reduce positive modulation by anesthetics; -: Negative results are indicated by “–“ symbols", "conditions": "previously reported; cited from earlier work"}, "[9]": {"tested_on": "α1β2N265Cγ2L receptors", "conditions": "at the tested concentration; etomidate binds extremely weakly; cited from earlier work"}, "[10]": {"target": "T4, α1β3γ2I242C GABAA receptors (Homo sapiens, UniProt P14867+P18507+P28472, I281C)", "T4 construct": "expressed in transfected cells; host or cells: Xenopus oocytes injected with capped mRNAs mixed 1α:1β:5γ", "T4 sequence (P14867 28-456)": "as the sequence (P14867 28-456 A318C) above, with C291A counted along it", "T4 sequence (P28472 26-473)": "as the sequence (P28472 26-473) above", "T4 sequence (P18507 40-475 I281C)": "as the sequence (P18507 40-475) above, with I242C counted along it", "assay": "Drug protection from pCMBS modification (SCAMP)", "assay_type": "cell-based", "parameters": "key to SCAMP result, γ2– (M1) I242: +: Mutant-function studies are deemed positive when bulky mutations (mostly tryptophans) at the site significantly reduce positive modulation by anesthetics; -: Negative results are indicated by “–“ symbols", "conditions": "for SCAMP result, γ2– (M1) I242: results of this study, etomidate cell also cites [9]", "description": "as §1, §2\nas §3, with “The statistical significance threshold was p < 0.05.” left out"}, "[11]": {"conditions": "α1A291Cβ3γ2L, 8 µM R-mTFD-MPAB or 10 µM pTFD-di-iPr-BnOH"}},
  "note": "Like-named read-outs stand apart in the source and are kept apart here.",
  "data": [
    {"smiles": "C=CCC1(c2cccc(C3(C(F)(F)F)N=N3)c2)C(=O)NC(=O)N(C)C1=O", "note": "(stereo not drawn) [R-mTFD-MPAB, R-5-allyl-1-methyl-5-(m-trifluoromethyl-diazirynylphenyl) barbituric acid]", "values": [
      {"measurement": "protection from pCMBS modification (significant reduction of modification ratio vs control, p < 0.05)", "setting": "[1]; α1A291C (α+), pCMBS 10 µM x 90 s, […] etomidate, 8 µM R-mTFD-MPAB or 10 µM pTFD-di-iPr-BnOH, n = 5", "value": "protection was inferred"},
      {"measurement": "modification ratio with anesthetic present, single oocyte example (Fig 2)", "setting": "[1]; [11]", "value": 2.1},
      {"measurement": "modification ratio lower than control", "setting": "[1]; α1A291Cβ3γ2L, single oocyte examples of Fig 2, control modification ratio 4.0", "value": 47, "unit": "%"},
      {"measurement": "SCAMP result, β3– (M1) M227", "setting": "[2]", "value": "+^[9]"},
      {"measurement": "Mutant-function result, α1– (M1) L232", "setting": "[3]", "value": "-^[9]"},
      {"measurement": "SCAMP result, β3– (M1) L231", "setting": "[4]", "value": "+^[9], *"},
      {"measurement": "Mutant-function result, γ2+ (M2, M3) S301", "setting": "[5]", "value": "+^[13]"}
    ]},
    {"smiles": "CCOC(=O)c1cncn1[C@H](C)c1ccccc1", "note": "[etomidate, R-etomidate]", "values": [
      {"measurement": "modification ratio with anesthetic present, single oocyte example (Fig 2)", "setting": "[1]; [11]", "value": 3.8},
      {"measurement": "SCAMP result, β3– (M1) L231", "setting": "[6]", "value": "-^[9], *"},
      {"measurement": "SCAMP result, γ2– (M1) L246", "setting": "[7]", "value": "-^[9], *"},
      {"measurement": "Mutant-function result, α1– (M1) L232", "setting": "[3]", "value": "+^[9, 12]"},
      {"measurement": "SCAMP result, β3– (M1) M227", "setting": "[8]", "value": "-^[9]"},
      {"measurement": "SCAMP protection at β N265C", "setting": "[9]", "value": "fails to protect"},
      {"measurement": "Mutant-function result, γ2+ (M2, M3) S301", "setting": "[5]", "value": "-^[13]"},
      {"measurement": "SCAMP result, γ2– (M1) I242", "setting": "[10]", "value": "-^[9],6"},
      {"measurement": "protection from pCMBS modification (significant reduction of modification ratio vs control, p < 0.05)", "setting": "[10]; γ2I242C (γ–), pCMBS 100 µM x 30 s, […] etomidate or 10 µM pTFD-di-iPr-BnOH, n = 5", "value": "no protection was inferred"}
    ]},
    {"smiles": "CC(C)c1cc(C2(C(F)(F)F)N=N2)cc(C(C)C)c1CO", "note": "[pTFD-di-iPr-BnOH]", "values": [
      {"measurement": "SCAMP result, β3– (M1) L231", "setting": "[4]", "value": "+*"},
      {"measurement": "SCAMP result, γ2– (M1) I242", "setting": "[10]", "value": "-*"}
    ]}
  ]
}
